From patent publication US12637478B2, “Compound, preparation method thereof, and antibiotic composition comprising same” (priority 2020, dated 2026) come the findings set out here.

≈ marks a conversion by molar mass, not a printed value.

The subject of experiment [1] is S. aureus^VR. The experiment can be described thus: MIC by broth microdilution (aerobic pathogens), test strain 4. In kind it is cell-based, Vancomycin resistant Staphylococcus aureus. The following applies: Staphylococcus aureus; test strain 4, S. aureus^VR (vancomycin resistant); read-out: MIC. As to the method:
(§1) The antibacterial activity of the compounds of Examples 1 to 48 of the present invention against aerobic pathogens were evaluated by measuring the minimum concentration of the antibiotic capable of inhibiting bacterial growth by 90% compared to the growth of the non-drug treated control group. MIC was measured by the broth microdilution method based on CLSI standards [Reference: Clinical and Laboratory Standards Institute Document. (2000) Methods for Dilution Antimicrobial Susceptibility Test for Bacteria that Grow Aerobically-Fifth Edition: M7-A5. CLSI, Villanova, PA].
(§2) All 13 strains such as methicillin susceptible Staphylococcus aureus (MSSA), methicillin resistant Staphylococcus aureus (MRSA), Vancomycin resistant Staphylococcus aureus (VRSA), Staphylococcus epidermidis, methicillin resistant Staphylococcus epidermidis, Enterococcus faecalis, Vancomycin resistant Enterococcus faecalis, Enterococcus faecium, Vancomycin resistant Enterococcus faecium were used.

Experiment [2] concerns S. aureus^MR. The experiment is described as follows: MIC by broth microdilution (aerobic pathogens), test strain 3. The format is cell-based, Methicillin resistant Staphylococcus aureus. The settings on record: Staphylococcus aureus; test strain 3, S. aureus^MR (methicillin resistant); read-out: MIC. On the procedure:
as §1, §2
(In broth dilution the organism is exposed to a series of concentrations in liquid medium.)

Experiment [3] has as its system C. difficile 161. The experiment is described as follows: MIC by agar dilution against Clostridioides difficile, test strain 16. The format is cell-based. The following applies: test strain 16, C. difficile 161, anaerobic, agar dilution, read-out: MIC. In general terms: In agar dilution the substance is mixed into plates at graded concentrations.
For experiment [4], the system named is E. faecalis. The experiment can be described thus: MIC by broth microdilution (aerobic pathogens), test strain 7. The format is cell-based. The settings on record: Enterococcus faecalis; test strain 7, E. faecalis; read-out: MIC. As to the method:
as §1, §2

Experiment [5] concerns E. faecium. The experiment can be described thus: MIC by broth microdilution (aerobic pathogens), test strain 10. The settings on record: Enterococcus faecium; test strain 10, E. faecium; read-out: MIC. In kind it is cell-based. On the procedure: as §1, §2
Experiment [6] deals with S. epidermis. The experiment is described as follows: MIC by broth microdilution (aerobic pathogens), test strain 5. The format is cell-based. The settings on record: Staphylococcus epidermidis; test strain 5, S. epidermis; read-out: MIC. As to the method:
as §1, §2

In experiment [7] the test system is S. aureus^MS. The experiment is described as follows: MIC by broth microdilution (aerobic pathogens), test strain 2. In kind it is cell-based. The following applies: Staphylococcus aureus; test strain 2, S. aureus^MS; read-out: MIC. On the procedure:
as §1, §2

The test system of experiment [8] is C. difficile 181. The experiment is described as follows: MIC by agar dilution against Clostridioides difficile, test strain 19. In kind it is cell-based. The settings on record: test strain 19, C. difficile 181, anaerobic, agar dilution, read-out: MIC.
Experiment [9] relates to C. difficile 173. The experiment can be described thus: MIC by agar dilution against Clostridioides difficile, test strain 17. The format is cell-based. The settings on record: test strain 17, C. difficile 173, anaerobic, agar dilution, read-out: MIC.
For experiment [10], the system named is C. difficile 152. The experiment can be described thus: MIC by agar dilution against Clostridioides difficile, test strain 14. The following applies: test strain 14, C. difficile 152, anaerobic, agar dilution, read-out: MIC. The format is cell-based.
Experiment [11] concerns E. faecium^LinR. The experiment is described as follows: MIC by broth microdilution (aerobic pathogens), test strain 12. In kind it is cell-based, Linezolid resistant Enterococcus faecium. The following applies: Enterococcus faecium; test strain 12, E. faecium^LinR (linezolid resistant); read-out: MIC. As to the method:
as §1, §2

In experiment [12] the test system is C. difficile 9689. The experiment is described as follows: MIC by agar dilution against Clostridioides difficile, test strain 13. The following applies: test strain 13, C. difficile 9689, anaerobic, agar dilution, read-out: MIC. In kind it is cell-based.
Experiment [13] has as its system S. aureus^MS. The experiment can be described thus: MIC by broth microdilution (aerobic pathogens), test strain 1. The format is cell-based. The settings on record: Staphylococcus aureus; test strain 1, S. aureus^MS; read-out: MIC. On the procedure:
as §1, §2

The test system of experiment [14] is C. difficile 159. The experiment is described as follows: MIC by agar dilution against Clostridioides difficile, test strain 15. The format is cell-based. The following applies: test strain 15, C. difficile 159, anaerobic, agar dilution, read-out: MIC.
The test system of experiment [15] is E. faecalis^LinR. The experiment is described as follows: MIC by broth microdilution (aerobic pathogens), test strain 9. In kind it is cell-based, Linezolid resistant Enterococcus faecalis. The following applies: Enterococcus faecalis; test strain 9, E. faecalis^LinR (linezolid resistant); read-out: MIC. As to the method: as §1, §2
The subject of experiment [16] is S. epidermis^MR. The experiment can be described thus: MIC by broth microdilution (aerobic pathogens), test strain 6. In kind it is cell-based, Methicillin resistant Staphylococcus epidermidis. The settings on record: Staphylococcus epidermidis; test strain 6, S. epidermis^MR (methicillin resistant); read-out: MIC. As to the method: as §1, §2
Experiment [17] deals with E. faecalis^VanA. The experiment is described as follows: MIC by broth microdilution (aerobic pathogens), test strain 8. The format is cell-based, Vancomycin resistant Enterococcus faecalis. The settings on record: Enterococcus faecalis; test strain 8, E. faecalis^VanA (vancomycin resistant); read-out: MIC. On the procedure: as §1, §2
In experiment [18] the test system is E. faecium^VRE. The experiment is described as follows: MIC by broth microdilution (aerobic pathogens), test strain 11. In kind it is cell-based, Vancomycin resistant Enterococcus faecium. The settings on record: Enterococcus faecium; test strain 11, E. faecium^VRE (vancomycin resistant); read-out: MIC. On the procedure: as §1, §2
Experiment [19] has as its system C. difficile 174. The experiment is described as follows: MIC by agar dilution against Clostridioides difficile, test strain 18. In kind it is cell-based. The settings on record: test strain 18, C. difficile 174, anaerobic, agar dilution, read-out: MIC.

As for `C/C=C(\NC(=O)c1csc(-c2csc(-c3ccc4c(n3)-c3csc(n3)[C@H]([C@@H](C)O)NC(=O)c3csc(n3)[C@H](C(C)C)NC(=O)c3csc(n3)/C(=C/C)NC(=O)[C@H]([C@@H](C)O)NC(=O)c3csc-4n3)n2)n1)C(=O)NCCn1cnc([N+](=O)[O-])n1` [Compound 42], the MIC in experiment [1] stood at 1 µg/mL (≈ 0.815 µM); in experiment [2], 1 µg/mL (≈ 0.815 µM); in [3], 1 µg/mL (≈ 0.815 µM); in experiment [4] it was 0.5 µg/mL (≈ 0.408 µM); in experiment [5] it was 1 µg/mL (≈ 0.815 µM); in experiment [6] it was 0.5 µg/mL (≈ 0.408 µM). In addition, the MIC amounted to 1 µg/mL (≈ 0.815 µM) in experiment [7]; 0.5 µg/mL (≈ 0.408 µM) in experiment [8]; 0.5 µg/mL (≈ 0.408 µM) in experiment [9]; 0.5 µg/mL (≈ 0.408 µM) in experiment [10]; 1 µg/mL (≈ 0.815 µM) in [11]; 0.5 µg/mL (≈ 0.408 µM) in experiment [12]. For the same compound, the MIC in [13] stood at 1 µg/mL (≈ 0.815 µM); in experiment [14], 0.5 µg/mL (≈ 0.408 µM); in experiment [15], 0.5 µg/mL (≈ 0.408 µM); in [16], 0.5 µg/mL (≈ 0.408 µM); in experiment [17], 0.5 µg/mL (≈ 0.408 µM); in [18], 1 µg/mL (≈ 0.815 µM). In addition, in experiment [19], the MIC worked out at 0.5 µg/mL (≈ 0.408 µM).

`C/C=C(\NC(=O)c1csc(-c2csc(-c3ccc4c(n3)-c3csc(n3)[C@H]([C@@H](C)O)NC(=O)c3csc(n3)[C@H](C(C)C)NC(=O)c3csc(n3)/C(=C/C)NC(=O)[C@H]([C@@H](C)O)NC(=O)c3csc-4n3)n2)n1)C(=O)NCCCN1CCOCC1` [Compound 48]: the MIC in experiment [1] came to 1 µg/mL (≈ 0.824 µM); in experiment [2] it was 1 µg/mL (≈ 0.824 µM); in [4], 0.5 µg/mL (≈ 0.412 µM); in [5] it was 0.5 µg/mL (≈ 0.412 µM); in [6] it was 0.5 µg/mL (≈ 0.412 µM); in [7], 0.5 µg/mL (≈ 0.412 µM). In addition, the MIC was 1 µg/mL (≈ 0.824 µM) in experiment [11]; 0.5 µg/mL (≈ 0.412 µM) in experiment [13]; 1 µg/mL (≈ 0.824 µM) in [15]; 0.5 µg/mL (≈ 0.412 µM) in experiment [16]; 0.5 µg/mL (≈ 0.412 µM) in [17]; 1 µg/mL (≈ 0.824 µM) in [18].

Take `C/C=C(\NC(=O)c1csc(-c2csc(-c3ccc4c(n3)-c3csc(n3)[C@H]([C@@H](C)O)NC(=O)c3csc(n3)[C@H](C(C)C)NC(=O)c3csc(n3)/C(=C/C)NC(=O)[C@H]([C@@H](C)O)NC(=O)c3csc-4n3)n2)n1)C(=O)NCCN1CCN(C)CC1` [Compound 46]: the MIC in [1] amounted to 0.5 µg/mL (≈ 0.412 µM); in [2], 1 µg/mL (≈ 0.825 µM); in experiment [4], 0.5 µg/mL (≈ 0.412 µM); in [5] it was 0.25 µg/mL (≈ 0.206 µM); in experiment [6], 0.25 µg/mL (≈ 0.206 µM); in experiment [7], 0.5 µg/mL (≈ 0.412 µM). The MIC in experiment [11] was 0.5 µg/mL (≈ 0.412 µM); in [13] it was 0.5 µg/mL (≈ 0.412 µM); in experiment [15], 0.25 µg/mL (≈ 0.206 µM); in experiment [16], 0.25 µg/mL (≈ 0.206 µM); in experiment [17], 0.5 µg/mL (≈ 0.412 µM); in experiment [18] it was 0.5 µg/mL (≈ 0.412 µM).

For `C/C=C1\NC(=O)[C@H]([C@@H](C)O)NC(=O)c2csc(n2)-c2ccc(-c3nc(-c4nc(C(=O)NC5(C(=O)NCCCB(O)O)CC5)cs4)cs3)nc2-c2csc(n2)[C@H]([C@@H](C)O)NC(=O)c2csc(n2)[C@H](C(C)C)NC(=O)c2csc1n2` [Compound 10], the MIC came to 0.5 µg/mL (≈ 0.427 µM) in experiment [1]; 0.5 µg/mL (≈ 0.427 µM) in [2]; 0.125 µg/mL (≈ 0.107 µM) in experiment [3]; 0.25 µg/mL (≈ 0.213 µM) in experiment [4]; 0.25 µg/mL (≈ 0.213 µM) in experiment [5]; 0.0625 µg/mL (≈ 0.0533 µM) in experiment [6]. The MIC in experiment [7] was 0.0625 µg/mL (≈ 0.0533 µM); in experiment [8], 0.25 µg/mL (≈ 0.213 µM); in experiment [9], 0.06 µg/mL (≈ 0.0512 µM); in [10], 0.06 µg/mL (≈ 0.0512 µM); in experiment [11] it was 0.5 µg/mL (≈ 0.427 µM); in experiment [12], 0.5 µg/mL (≈ 0.427 µM). Besides, the MIC in experiment [13] was found to be 0.125 µg/mL (≈ 0.107 µM); in experiment [14] it was 0.25 µg/mL (≈ 0.213 µM); in [15], 0.125 µg/mL (≈ 0.107 µM); in experiment [16], 0.125 µg/mL (≈ 0.107 µM); in [17], 0.25 µg/mL (≈ 0.213 µM); in experiment [19] it was 0.06 µg/mL (≈ 0.0512 µM).

For orientation: MIC means the lowest concentration found to suppress growth.
